Assay results taken from patent US12441736B2, “KIF18A inhibitors” (AMGEN INC., priority 2018, dated 2025).

Biological target: T1, Recombinant human KIF18A (1-467 His-tagged) protein (Homo sapiens, UniProt Q8NI77)
T1 construct: Recombinant human KIF18A (1-467 His-tagged) protein; His; made in house
Assay: KIF18A Enzyme Assay: microtubule-stimulated ATPase activity (ADP-Glo)
Assay type: biochemical
Conditions: 30 nM KIF18A, 30 μg/mL pig microtubules, 75 μM ATP, ADP-Glo luminescence
Procedure, shortened: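 His-tagged human KIF18A (1-467, baculovirus), 30 nM, pre-incubated 15 min with compound in Tris pH 7.5 containing 30 μg/mL taxol-stabilised pig microtubules. ATP was then added at Km (75 μM) for 15 min at room temperature. ADP was measured by ADP-Glo luminescence, and IC50 was fitted by 4-parameter logistic over 22 points.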

T1 sequence (Q8NI77 1-467): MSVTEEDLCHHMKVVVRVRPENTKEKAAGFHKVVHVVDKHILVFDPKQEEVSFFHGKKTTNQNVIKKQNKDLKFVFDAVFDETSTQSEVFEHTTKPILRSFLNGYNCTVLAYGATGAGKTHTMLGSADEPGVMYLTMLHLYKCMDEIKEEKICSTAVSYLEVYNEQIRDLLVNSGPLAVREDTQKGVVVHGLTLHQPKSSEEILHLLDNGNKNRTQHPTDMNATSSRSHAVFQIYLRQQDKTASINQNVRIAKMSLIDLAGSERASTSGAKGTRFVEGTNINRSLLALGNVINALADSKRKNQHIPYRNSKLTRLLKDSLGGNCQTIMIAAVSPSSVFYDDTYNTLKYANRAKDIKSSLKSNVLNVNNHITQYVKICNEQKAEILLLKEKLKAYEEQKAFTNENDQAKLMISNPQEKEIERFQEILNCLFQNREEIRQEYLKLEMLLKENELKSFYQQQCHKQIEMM
T1 sequence (P02550 whole entry partner): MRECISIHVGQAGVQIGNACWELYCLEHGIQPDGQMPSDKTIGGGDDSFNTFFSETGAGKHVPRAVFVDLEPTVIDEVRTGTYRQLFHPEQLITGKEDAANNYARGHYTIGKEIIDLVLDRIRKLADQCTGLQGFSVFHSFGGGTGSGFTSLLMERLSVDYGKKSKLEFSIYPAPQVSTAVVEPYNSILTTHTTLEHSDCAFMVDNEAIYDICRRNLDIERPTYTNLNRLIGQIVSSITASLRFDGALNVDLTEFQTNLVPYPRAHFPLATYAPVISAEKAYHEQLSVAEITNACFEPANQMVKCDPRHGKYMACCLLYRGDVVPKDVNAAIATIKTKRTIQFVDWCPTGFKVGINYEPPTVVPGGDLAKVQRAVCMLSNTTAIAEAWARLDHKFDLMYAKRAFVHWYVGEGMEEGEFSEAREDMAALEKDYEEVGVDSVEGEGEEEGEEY
T1 sequence (P02554 whole entry partner): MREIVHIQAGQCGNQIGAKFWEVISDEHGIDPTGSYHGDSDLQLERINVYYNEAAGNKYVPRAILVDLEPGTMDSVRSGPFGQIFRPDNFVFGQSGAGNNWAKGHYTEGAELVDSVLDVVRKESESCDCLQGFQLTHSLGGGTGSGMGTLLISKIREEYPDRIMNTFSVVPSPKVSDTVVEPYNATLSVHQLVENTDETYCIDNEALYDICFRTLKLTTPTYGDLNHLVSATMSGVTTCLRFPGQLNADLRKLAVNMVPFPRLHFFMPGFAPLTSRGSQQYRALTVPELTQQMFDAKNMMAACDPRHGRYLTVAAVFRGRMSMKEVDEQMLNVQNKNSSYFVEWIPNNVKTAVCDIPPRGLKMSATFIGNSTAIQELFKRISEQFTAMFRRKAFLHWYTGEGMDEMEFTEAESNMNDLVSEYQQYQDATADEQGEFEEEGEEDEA

Row | SMILES | IC50 [nM]
1 | C[C@@H]1CN(c2cccc(NC(=O)c3cnc(NC(C)(C)CO)cc3N3CCC4(CC3)CC4)n2)CCO1 [Example 243, (R)-6-((1-hydroxy-2-methylpropan-2-yl)amino)-N-(6-(2-methylmorpholino)pyridin-2-yl)-4-(6-azaspiro[2.5]octan-6-yl)nicotinamide] | 440
2 | O=C(Nc1cccc(N2CCOCC2)n1)c1ccc([C@](O)(CO)C(F)(F)F)nc1N1CCC2(CC1)CC2 (single isomer, unassigned) [Example 202] | 68.4
3 | Cc1cc(NC(=O)c2ccc(N3CC(O)CC3(C)C)nc2N2CCC3(CC2)CC3)nc(N2CCOCC2)c1 (stereo not drawn) [Example 212, 6-(4-hydroxy-2,2-dimethylpyrrolidin-l-yl)-N-(4-methyl-6-morpholinopyridin-2-yl)-2-(6-azaspiro[2.5]octan-6-yl)nicotinamide] | 540
4 | C[C@@H]1CN(c2nc(NC(=O)c3ccc(NC(C)(C)CO)nc3N3CCC4(CC3)CC4)ccc2F)CCO1 [Example 247, 2-(6-azaspiro[2.5]octan-6-yl)-N-(5-fluoro-6-((2R)-2-methyl-4-morpholinyl)-2-pyridinyl)-6-((1-hydroxy-2-methyl-2-propanyl)amino)-3-pyridinecarboxamide] | 89.1
5 | CC1(O)CN(c2ccc(C(=O)Nc3cccc(S(=O)(=O)NC(C)(C)C)n3)c(N3CCC4(CC3)CC4)n2)C1 [Example 159, 2-(6-azaspiro[2.5]octan-6-yl)-6-(3-hydroxy-3-methyl-1-azetidinyl)-N-(6-((2-methyl-2-propanyl)sulfamoyl)-2-pyridinyl)-3-pyridinecarboxamide] | 169
6 | CC(CO)(CO)Nc1ccc(C(=O)Nc2cccc(N3CCOCC3)n2)c(N2CCC3(CC2)CC3)n1 [Example 148, 2-(6-azaspiro[2.5]oct-6-yl)-6-((1,3-dihydroxy-2-methyl-2-propanyl)amino)-N-(6-(4-morpholinyl)-2-pyridinyl)-3-pyridinecarboxamide] | 60.4
7 | CC(C)(CO)Nc1ccc(C(=O)Nc2cccc(-c3ncco3)n2)c(N2CCC3(CC2)CC3)n1 [Example 122, 2-(6-azaspiro[2.5]oct-6-yl)-6-((2-hydroxy-1,1-dimethylethyl)amino)-N-(6-(1,3-oxazol-2-yl)-2-pyridinyl)-3-pyridinecarboxamide] | 316
8 | C[C@H]1CCN(c2cccc(NC(=O)c3ncc(NC(C)(C)CO)nc3N3CCC4(CC3)CC4)n2)C1 [Example 105, 3-(6-azaspiro[2.5]oct-6-yl)-5-((1-hydroxy-2-methyl-2-propanyl)amino)-N-(6-((3S)-3-methyl-1-pyrrolidinyl)-2-pyridinyl)-2-pyrazinecarboxamide] | 122
9 | CC(C)(C)NS(=O)(=O)c1cccc(NC(=O)c2ccc([C@@](C)(O)C(F)(F)F)nc2N2CCC3(CC2)CC3)n1 (single isomer, unassigned) [Example 153] | 53.4
10 | CC1(C)CC(=O)N(c2cccc(NC(=O)c3ncc(NC(C)(C)CO)nc3N3CCC4(CC3)CC4)n2)C1 [Example 107, 3-(6-azaspiro[2.5]oct-6-yl)-N-(6-(4,4-dimethyl-2-oxo-1-pyrrolidinyl)-2-pyridinyl)-5-((1-hydroxy-2-methyl-2-propanyl)amino)-2-pyrazinecarboxamide] | 111
